Source: patent US20250034216A1, “STEREOSELECTIVE COVALENT LIGANDS FOR ONCOGENIC AND IMMUNOLOGICAL PROTEINS” (The Scripps Research Institute, priority 2021, published 2025)

How the values were obtained:
Experiment in all cases: IA-DTB cysteine engagement
Format in all cases: binding
Settings in all cases: 22Rv1 cells, 20 μM probe, 1 h, relative to DMSO
[1] = target: T1, DENND2B_C804 (Homo sapiens, UniProt P78524)
T1 construct: endogenous in cells; host or cells: 22Rv1
T1 sequence (P78524 1-1137): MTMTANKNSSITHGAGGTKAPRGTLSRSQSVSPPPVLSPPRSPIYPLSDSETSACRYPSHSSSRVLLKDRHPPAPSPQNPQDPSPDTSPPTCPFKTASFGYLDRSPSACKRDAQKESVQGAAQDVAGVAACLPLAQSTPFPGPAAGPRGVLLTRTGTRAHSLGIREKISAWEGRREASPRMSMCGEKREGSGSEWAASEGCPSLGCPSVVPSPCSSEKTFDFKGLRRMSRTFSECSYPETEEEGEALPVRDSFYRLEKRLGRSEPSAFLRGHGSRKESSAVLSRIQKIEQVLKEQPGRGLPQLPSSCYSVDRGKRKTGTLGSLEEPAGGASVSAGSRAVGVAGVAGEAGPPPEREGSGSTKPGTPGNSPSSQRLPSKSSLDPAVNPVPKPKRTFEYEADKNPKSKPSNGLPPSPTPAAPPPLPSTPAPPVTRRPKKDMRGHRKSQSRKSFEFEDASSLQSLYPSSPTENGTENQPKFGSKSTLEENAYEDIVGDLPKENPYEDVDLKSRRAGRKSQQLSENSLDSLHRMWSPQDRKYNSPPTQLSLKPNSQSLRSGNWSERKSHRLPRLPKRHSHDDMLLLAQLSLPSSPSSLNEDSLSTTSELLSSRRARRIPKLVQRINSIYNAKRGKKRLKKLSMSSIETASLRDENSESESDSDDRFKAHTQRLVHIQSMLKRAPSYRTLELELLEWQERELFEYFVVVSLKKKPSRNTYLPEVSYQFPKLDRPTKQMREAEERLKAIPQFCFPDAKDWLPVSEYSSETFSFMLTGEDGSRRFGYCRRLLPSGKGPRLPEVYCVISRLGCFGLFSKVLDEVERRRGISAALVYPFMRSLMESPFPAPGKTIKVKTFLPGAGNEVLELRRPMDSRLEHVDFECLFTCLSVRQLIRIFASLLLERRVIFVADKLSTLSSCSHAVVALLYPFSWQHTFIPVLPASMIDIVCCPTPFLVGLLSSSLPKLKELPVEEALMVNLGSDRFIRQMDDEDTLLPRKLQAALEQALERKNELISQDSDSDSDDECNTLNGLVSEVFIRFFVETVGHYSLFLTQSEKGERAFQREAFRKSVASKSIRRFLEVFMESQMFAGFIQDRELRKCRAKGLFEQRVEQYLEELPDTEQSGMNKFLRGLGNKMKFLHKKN
Summary of the method: (§1)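 Competitive chemoproteomics: residual cysteine reactivity toward IA-DTB in lysates from probe-treated cells was quantified by TMT reporter ions relative to DMSO-treated controls. Replicates sharing cell line, probe, concentration and duration were averaged.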

[2] = target: T2, DCUN1D4_C219 (Homo sapiens, UniProt Q92564)
T2 construct: endogenous in cells; host or cells: 22Rv1
T2 sequence (Q92564 1-292): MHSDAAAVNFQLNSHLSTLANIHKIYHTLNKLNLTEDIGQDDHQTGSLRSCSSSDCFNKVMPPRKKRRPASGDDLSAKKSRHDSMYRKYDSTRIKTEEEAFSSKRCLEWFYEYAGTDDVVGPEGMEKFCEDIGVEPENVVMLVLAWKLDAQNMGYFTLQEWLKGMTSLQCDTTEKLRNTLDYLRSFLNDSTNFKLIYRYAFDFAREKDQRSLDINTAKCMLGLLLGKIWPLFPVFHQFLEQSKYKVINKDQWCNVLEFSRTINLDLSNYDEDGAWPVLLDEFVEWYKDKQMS
Summary of the method: as §1

[3] = target: T3, MGST3_C56 (Homo sapiens, UniProt O14880)
T3 construct: endogenous in cells; host or cells: 22Rv1
Summary of the method: as §1

T3 sequence (O14880 whole entry): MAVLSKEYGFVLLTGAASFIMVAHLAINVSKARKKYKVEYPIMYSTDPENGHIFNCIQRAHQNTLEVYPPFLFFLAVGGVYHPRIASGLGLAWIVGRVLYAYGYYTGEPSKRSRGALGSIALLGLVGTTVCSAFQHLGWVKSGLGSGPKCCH

Row | Compound | % engagement DENND2B_C804 [1] | % engagement DCUN1D4_C219 [2] | % engagement MGST3_C56 [3]
1 | C=CC(=O)N1C[C@H](c2ccc(Br)cc2)[C@H]1C(=O)Nc1cccc2cccnc12 [MY-3A, (2S,3S)-1-acryloyl-3-(4-bromophenyl)-N-(quinolin-8-yl)azetidine-2-carboxamide] | −5.25% | 33.5% | 63.5%
2 | C=CC(=O)N1C[C@@H](c2ccc(Br)cc2)[C@H]1C(=O)Nc1cccc2cccnc12 [MY-1A, (2S,3R)-1-acryloyl-3-(4-bromophenyl)-N-(quinolin-8-yl)azetidine-2-carboxamide] | 29.25% | 45.5% | 58.75%
3 | C=CC(=O)N1C[C@H](c2ccc(Br)cc2)[C@@H]1C(=O)Nc1cccc2cccnc12 [MY-1B, (2R,3S)-1-acryloyl-3-(4-bromophenyl)-N-(quinolin-8-yl)azetidine-2-carboxamide] | 80.25% | 82.5% | 58%
4 | C=CC(=O)N1C[C@H](c2ccc(Br)cc2)[C@H]1C(=O)Nc1cccc2cccnc12 [MY-3B, (2S,3S)-1-acryloyl-3-(4-bromophenyl)-N-(quinolin-8-yl)azetidine-2-carboxamide] | −5.75% | −17% | 73.5%
